Data on one molecule can be found in patent US20250381194A1, “METHODS FOR MITIGATING THE EFFECTS OF LOW-LEVEL BLASTS THROUGH PHOSPHODIESTERASE-5 INHIBITION” (University of Kentucky Research Foundation, priority 2024, published 2025).

Molecules are shown by their SMILES. “Also recorded” adds a separate entry of the source.

For one experiment, the system named is PGC-1α. The experiment is described as follows: Western blot for PGC-1α in cortical and hippocampal tissue seven days post-rmbTBI. Type of experiment: in vivo, Sprague Dawley rats. The following applies: vs rmbTBI vehicle; for PGC-1α expression in cortex tissue: rmbTBI (2 blasts, 24 h interval). In general terms: In western blotting, separated proteins are transferred to a membrane and probed.

For experiment [1], the system named is cerebral blood flow (CBF). The experiment is described as follows: MRI arterial spin labeling of cerebral blood flow, chronic delayed sildenafil study. Type of experiment: in vivo, Sprague Dawley rats. To be noted: 20 mg/kg daily, 2 and 4.5 months post-rmbTBI, between sham, rmbTBI+vehicle.
Protocol: Animal Procedure. […] MRI (magnetic resonance imaging) was performed at 1.5 and 4.5 months post-blast. […] At the end of the experiment, rats were euthanized and the brain tissue was collected after transcardial perfusion with PBS (FIG. 24). One hemisphere of the brain was snap frozen with liquid nitrogen for brain capillary isolation while another hemisphere of the brain was fixed with 4% paraformaldehyde (PFA). After 48 hours of fixation, the brain tissue was placed into PBS containing 30% sucrose for 72 hours. The sucrose saturated brain tissue was flash frozen in-25 to −35° C. isopentane and stored at −20° C. or proceeded to sectioning.
Magnetic Resonance Imaging (MRI). MRI scanning was performed at 1.5 months and 4.5 months post-blast injury. Briefly, rats were placed under anesthesia with 4% isoflurane before placing it in the MRI scanner. Physiological monitoring was recorded every 10 min (with normal range 300-450 bpm) and rat body temperature was maintained while scanning under anesthesia. […] Labeling efficiency was calculated from a pCASL-encoded fast low-angle shot (FLASH) sequence (TR/TE=250/3.5 ms; in plane resolution 182×182 μm2; slice thickness 1.5 mm; flip angle 80° labeling time 200 ms; transit time 0 ms) image of the carotid artery just below the split and 5 mm above the labeling slice. […]
In experiment [2] the test system is mitochondrial volume and tight junction proteins in isolated brain capillaries. In words: Correlation of capillary mitochondrial volume (OXPHOS) and ZO-1, chronic delayed sildenafil study. Type of experiment: in vivo, Sprague Dawley rats. The following applies: 20 mg/kg oral gavage daily from 2 to 5 months post-blast; brain capillaries at 5 months post-rmbTBI.
Protocol: Brain Capillary Isolation and Immunostaining. Half frozen rat brain from all groups was homogenized with isolation buffer (pH7.4 DPBS containing 5.5 mM glucose, 1 mM sodium pyruvate, and 1% BSA). The homogenate was centrifuged at 1000×g for 10 min at 4° C. to remove the supernatant. […] After evaluating the quality and concentration of capillary suspension under a bright field microscope, which may contain small amount of large vessel and cells, the isolated capillary sample was ready for the immunostaining analysis. […]
The expression of ZO-1 was quantified by measuring the mean fluorescence intensity by tracing the capillary under NIS-Elements analysis software. The total capillary area was measured by using NIS-Elements. For mitochondrial volume, the OXPHOS fluorescence from Z-stack images was quantified using Imaris (X64 9.6.1) using surface creation tool. […]
Experiment [3] relates to freezing behavior after rmbTBI. The experiment is described as follows: Contextual fear conditioning test, chronic delayed sildenafil study. Type of experiment: in vivo, Sprague Dawley rats. To be noted: 20 mg/kg daily; 5 months post-blast; day 1 acquisition, days 2-4 extinction. On the procedure:
Animal Procedure. […] MRI (magnetic resonance imaging) was performed at 1.5 and 4.5 months post-blast. Fear conditioning test was performed at 5 months post-blast. At the end of the experiment, rats were euthanized and the brain tissue was collected after transcardial perfusion with PBS (FIG. 24). One hemisphere of the brain was snap frozen with liquid nitrogen for brain capillary isolation while another hemisphere of the brain was fixed with 4% paraformaldehyde (PFA). After 48 hours of fixation, the brain tissue was placed into PBS containing 30% sucrose for 72 hours. The sucrose saturated brain tissue was flash frozen in-25 to −35° C. isopentane and stored at −20° C. or proceeded to sectioning. Fear Conditioning Test. Contextual Fear Conditioning paradigm was performed over 4 days. On the acquisition day, rats were placed in a foot shock chamber with a camera within a sound-attenuating chamber and were allowed to explore freely for 2 min. After 2 min, a total of 6 electric shocks (0.75 mA, 2 s duration) were delivered at intervals of 60 s through the testing chamber floor, with shock delivery controlled by Med associates Inc. VideoFreeze™ Video Fear Conditioning Software. […] Video footage was later scored for freezing behavior using Med associates Inc. VideoFreeze™ Video Fear Conditioning Software. […]

The subject of the next experiment is GFAP. In words: Western blot for GFAP in cortical tissue seven days post-rmbTBI. Format: in vivo, Sprague Dawley rats. To be noted: rmbTBI (2 blasts, 24 h interval), vs rmbTBI vehicle.
In the next experiment the test system is TOM20. In words: Capillary-specific mitochondrial content (TOM20 staining) seven days post-rmbTBI. Format: in vivo, Sprague Dawley rats. To be noted: 20 mg/kg high dose daily to day seven, vs rmbTBI vehicle. From the text: (§1) Blast Exposure. The MBD consists of a cylindrical steel tube, 12-inch internal diameter, separated into a 19-ft. expansion chamber and a 2.5-ft compression chamber. For these studies, compressed helium-driven mode was used to replicate military blast exposure. A 10-mil-thick (0.254 mm) biaxially-oriented polyethylene terephthalate (Mylar) membrane separates the two chambers. The Mylar membrane was actively ruptured by a 4-point blade affixed to a pneumatic cylinder to achieve desired static overpressure. The shock wave was recorded by face-on, reflected pressure (Kulite pitot-static pressure probe) and wall-mounted side-on static pressure sensors (Kulite). Data from each piezoresistive sensor was routed through sensor cables before being captured by the state-of-the-art TMX-18 (AstroNova™ Test & Measurement, 800 kHz sampling rate) and analyzed using AstroView. The rat subjects were secured in plastic netting to minimize but allow free body motion without neck flexion. The rat subjects were positioned 30 inches inside the tube and with lateral head exposure. An overpressure of 11 PSI was utilized, which is in the range where neurological disruption has been observed in operations involving breaching activity. In the studies underlying this example, Sprague Dawley rats were subjected to repeated blast exposure (2 blasts at 24 h interval). Capillary Isolation. […]

In experiment [4] the test system is rat brain microvascular endothelial cells. The experiment is described as follows: Mitochondrial Network Analysis (MiNA) with mitotracker green in cell culture. Type of experiment: cell-based. The following applies: sildenafil 1 μM in 1% DMSO overnight vs vehicle. From the text: Mitochondrial Mechanisms Targeting mbTBI. […] Mitochondrial Network Analysis (MiNA) workflow in ImageJ was used to examine mitochondrial parameters.

Another experiment concerns ZO-1. The experiment is described as follows: Tight junction integrity (ZO-1 immunostaining of cortical capillaries) seven days post-rmbTBI. Format: in vivo, Sprague Dawley rats. The following applies: 20 mg/kg high dose daily to day seven, vs rmbTBI vehicle.
Excerpt: as §1

Where [5] appears, read: 5 mg/kg low dose daily to day seven.
The mark [6] stands for this setting: 20 mg/kg high dose daily to day seven.

Excerpt for GFAP: Blast Exposure. The MBD consists of a cylindrical steel tube, 12-inch internal diameter, separated into a 19-ft. expansion chamber and a 2.5-ft compression chamber. For these studies, compressed helium-driven mode was used to replicate military blast exposure. A 10-mil-thick (0.254 mm) biaxially-oriented polyethylene terephthalate (Mylar) membrane separates the two chambers. The Mylar membrane was actively ruptured by a 4-point blade affixed to a pneumatic cylinder to achieve desired static overpressure. The shock wave was recorded by face-on, reflected pressure (Kulite pitot-static pressure probe) and wall-mounted side-on static pressure sensors (Kulite). Data from each piezoresistive sensor was routed through sensor cables before being captured by the state-of-the-art TMX-18 (AstroNova™ Test & Measurement, 800 kHz sampling rate) and analyzed using AstroView. The rat subjects were secured in plastic netting to minimize but allow free body motion without neck flexion. The rat subjects were positioned 30 inches inside the tube and with lateral head exposure. […] Expression of peroxisome proliferator-activated receptor gamma coactivator 1-alpha (PGC-1α), glial fibrillary acidic protein (GFAP), and β-actin was assessed in cortical tissue using western blot. […] Expression of PGC-1a and β-actin was also assessed using in the hippocampal tissue of subjects using western blot. […]
Excerpt for PGC-1α: Blast Exposure. The MBD consists of a cylindrical steel tube, 12-inch internal diameter, separated into a 19-ft. expansion chamber and a 2.5-ft compression chamber. For these studies, compressed helium-driven mode was used to replicate military blast exposure. A 10-mil-thick (0.254 mm) biaxially-oriented polyethylene terephthalate (Mylar) membrane separates the two chambers. The Mylar membrane was actively ruptured by a 4-point blade affixed to a pneumatic cylinder to achieve desired static overpressure. The shock wave was recorded by face-on, reflected pressure (Kulite pitot-static pressure probe) and wall-mounted side-on static pressure sensors (Kulite). Data from each piezoresistive sensor was routed through sensor cables before being captured by the state-of-the-art TMX-18 (AstroNova™ Test & Measurement, 800 kHz sampling rate) and analyzed using AstroView. The rat subjects were secured in plastic netting to minimize but allow free body motion without neck flexion. The rat subjects were positioned 30 inches inside the tube and with lateral head exposure. An overpressure of 11 PSI was utilized, which is in the range where neurological disruption has been observed in operations involving breaching activity. In the studies underlying this example, Sprague Dawley rats were subjected to repeated blast exposure (2 blasts at 24 h interval). Tissue Isolation. For downstream western blot, whole brain homogenate was collected during brain capillary isolation and mixed with 10× RIPA buffer (150 mM NaCl, 1% Triton X-100, 0.5% sodium deoxycholate, 0.1% SDS, 50 mM Tris, pH 8.0) supplemented with protease inhibitors. The samples were snap-frozen in liquid nitrogen and stored at −80° C. until further use. Mitochondrial Biogenesis and Astrocyte Homeostasis. […] Expression of peroxisome proliferator-activated receptor gamma coactivator 1-alpha (PGC-1α), glial fibrillary acidic protein (GFAP), and β-actin was assessed in cortical tissue using western blot. Cortical tissue was extracted and probed seven days post-rmbTBI. Expression of PGC-1a and β-actin was also assessed using in the hippocampal tissue of subjects using western blot. Hippocampal tissue was extracted and probed seven-days post-rmbTBI.

With `CCCc1nn(C)c2c(=O)[nH]c(-c3cc(S(=O)(=O)N4CCN(C)CC4)ccc3OCC)nc12` [sildenafil], the “PGC-1α expression in cortex tissue” value with PGC-1α (setting [5]) and in the experiment on PGC-1α (setting [6]) was “increased” in each case. Further, the “PGC-1α expression in hippocampal tissue” value in the experiment with PGC-1α (20 mg/kg high dose daily to day seven, rmbTBI) is listed as “significantly increased”. In addition, the “regional cerebral blood flow (CBF) in cortex, hippocampus and amygdala” value in experiment [1] was “No significant differences”. Further, in experiment [2], the “correlation between capillary mitochondrial content (OXPHOS) and tight junction integrity (ZO-1)” value is “significant positive correlation; also recorded: strengthens the correlation”. For the same molecule, the “freezing episodes (fear extinction)” value in experiment [3] is on record as “significant time-related decrease”. The “GFAP expression in cortex tissue” value in the experiment on GFAP (setting [5]) and in the experiment with GFAP (setting [6]) was “increased” in each case. For the same molecule, the “TOM20 expression / capillary mitochondrial volume” value in the experiment with TOM20 was “significantly increased; also recorded: increased volume”. Moreover, the mitochondrial branching result in experiment [4] was “decreased”. The mitochondrial footprint/density entry in experiment [4] is “increased”. Further, in the experiment on ZO-1, the “ZO-1 expression in cortical capillaries” value is reported as “increased; also recorded: non-significantly increased”.
